In patent US11116799B2, “Generation of uniform hepatocytes from human embryonic stem cells by inhibiting TGF-beta and methods of maintaining hepatic cultures” (Wisconsin Alumni Research Foundation, priority 2016, dated 2021):
Values joined by “and” are separate entries in the source; they are usually repeats but may differ in a detail not shown here. Identical values can stand only once. “Also recorded” adds a separate entry of the source.

Tests used:
[1] = test system: primary mouse hepatocytes; experiment: RNA-Seq gene expression in primary mouse hepatocytes treated with kinase inhibitors; settings: 10 μM, 72 hours
Description: The next step was to determine if the PI3/Akt and MAPK pathways are involved in maintenance of hepatocyte maturation. We investigated whether small molecule inhibition of these pathways would mimic let-7's action and reduce the loss of mature function of hepatocytes in culture after removal from their microenvironment. […] Then, expression of the top ten important metabolic enzymes (CYPs, UGTs and transporters) by RNA-Seq with uncultured fresh hepatocytes and control vehicle hepatocytes treated for 72 hours was compared.
Hepatocytes from 6 black mice livers were isolated by perfusion following standard protocol and cultured on Matrigel coated plates in hepatocyte growth medium (Promocell). Whole developing livers from 6 black mice were used for RNA isolation with Trizol for let-7c measurements.
(§1) Total RNA (including microRNA) from all cells, which were not mentioned otherwise, were isolated using RNAeasy Plus Kit […] following manufacturers protocol. RNA-Seq was performed by LM-Seq (Illumina). MicroRNAs were sequenced using Illumina's small RNA sequencing kit. Expression of let-7 and U6 snoRNA were measured by quantitative PCR using ABI's kit. Let-7c expression levels were normalized by U6 snoRNA expression (RQ or relative quantity values, error bars representing standard error, RQ min and RQ max).
Multiple batches of cryopreserved induction qualified human hepatocytes (each batch being from one donor) were purchased from Life Technologies and cultured on Matrigel coated plates in hepatocyte growth medium (PromoCell). For dedifferentiation studies, hepatocytes from batches Hu4260, Hu8135, Hu4279 and Hu8137 were used after mixing equal number of live cells. For small molecule treatments, batch Hu4260 was used. Mouse hepatocytes were isolated from Black 6 mice livers by perfusion following standard protocol and cultured on Matrigel coated plates in hepatocyte growth medium (Promocell).
(§2) Total RNA were isolated using RNAeasy Plus Kit (Qiagen) following manufacturers protocol and qualified with the Life Technologies Qubit fluorometer and Agilent Bioanalyzer. […] Final indexed cDNA libraries were pooled and sequenced on an Illumina HiSeq 2500. Base-calling and demultiplexing were performed using Casava (v1.8.2). Sequences were filtered and trimmed to remove low quality reads, adapters, and other sequencing artifacts. The remaining reads were aligned to a reference database comprising only RefSeq-validated transcripts (i.e., assigned an “NM_” accession). Mouse samples were aligned to the mm10 assembly, and human samples were aligned to the hg19 assembly. […] Reads with more than 200 alignments were excluded from further analysis. […] All RNA-seq results have been deposited at NCBI's GEO under Accession No. GSE94353.
The inventors next investigated whether the MAPK and PI3/Akt pathways contributed to the dedifferentiation of hepatocytes. […] Rapamycin was included as a control, which is an inhibitor of the mTOR pathway, a serine/threonine kinase involved in cell signaling not identified as a key pathway in our analysis.

HepG2 cells [2] = test system: HepG2 cells
Protocol: Both types of cells were treated with a vehicle or small molecule for 72 hours and genes were quantified using RNA-Seq.
as §1, §2
(§3) To test whether the upregulation of metabolic genes at the mRNA level translated into functional metabolic improvement, acetaminophen (APAP) metabolism was assessed by LC/MS/MS.

[3] = test system: primary human hepatocytes (PHHs); experiment: RNA-Seq gene expression in MAPK inhibitor treated primary human hepatocytes; assay type: cell-based
Protocol: […]. […] […].
For small RNA-Seq profiling, hepatocytes from Hu8082 were used; for de-differentiation time course and let-7c transduction, hepatocytes from Hu4260, Hu8135, Hu4279 and Hu8137 were used. For both experiments, cells from all 4 donors were mixed in equal numbers after assessment of viability. For small molecule treatments, batch Hu4260 was used.
RNA-Seq was performed by LM-Seq (Illumina).
For small molecule treatments, batch Hu4260 was used.
. To ascertain that the increase in metabolic enzymes took place through specific MAPK inhibition, PHHs were treated with a second MAPK inhibitor, PD0325901, for 72 hours, followed by RNA-Seq analysis (Supplementary Table 4). […].

CYP2C9 = settings: HepG2, treated 72 hours
Protocol: (§4) CYP2C9 and 3A4 metabolism were measured using CYP450 Glo assay (Promega). In short, substrates were added to the media and incubated for 72 hours and the amount of metabolites generated were measured by adding the detection reagent and quantifying the luminescence in a Tecan® plate reader. Background was measured by incubating the substrates for 72 hours in the same media without cells. Cell counting for proliferation assay was carried out by dye exclusion in an automated cell counter (ThermoFisher).
CYP2C9 and 3A4 metabolism were measured using CYP450 Glo assay (Promega). Substrates were added to the media and incubated for 72 hours and the amount of metabolite generated were measured by adding the detection reagent and quantifying the luminescence in a Tecan plate reader. Background was measured by incubating the substrates for 72 hours in the same media without cells.

HepG2 cells [4] = experiment: HepG2 viability / cell growth (cell counting by dye exclusion); assay type: cell-based, human; settings: HepG2, 72 hours, compared to vehicle control
Protocol: as §4

HepG2 cells [5] = settings: HepG2 treated 72 hours, 10 uM APAP for 1 hour
Description: Samples for LC/MS/MS analysis were processed by solid-phase extraction, and calibrant curves (7 points) for all compounds were generated by spiking standards (Sigma) in E6 media and processed in parallel with samples. An internal standard of deuterated naproxen was included for all analytes. Samples were run on a 0.2×100 mm Cortecs C18 column (Waters Corporation, Milford Mass.) using a Waters Acquity UPLC system coupled to an AB/Sciex Q-Trap 5500 hybrid triple quadrupole instrument (Framingham Mass.). Analytes were detected using multiple-reaction-monitoring with three transitions for each compound being monitored. Each sample was analyzed in triplicate with blanks between each sample analysis. Quantitation was based on area under the curve of the analyte relative to the internal standard and was modeled with a quadratic fit with 1/× weighting using the MultiQuant software (Sciex, Framingham Mass.). […] Average calculated concentrations for each analyte are reported. […] Background was determined by measuring metabolites in media incubated with acetaminophen only for 1 hour and any samples below background were considered nil.
as §3

[6] = test system: ALB-GFP/tdTomato-AFP marker cell line; settings: marker line differentiated with TGFB and NOTCH inhibition in E6, then treated 72 hours
Description: We next differentiated the ALB-GFP/tdTomato-AFP marker cell line to hepatocytes with TGFB and NOTCH inhibition in defined E6 medium.

[7] = primary human hepatocytes, treated 72 hours

## N#CC(=C(/N)Sc1ccccc1N)/C(C#N)=C(\N)Sc1ccccc1N [U0126]
[1]
  ABCC2 gene expression: 415.86 transcripts per million
  CYP1A2 gene expression: 1271.98 transcripts per million
  CYP2C9 gene expression: 2676.68 transcripts per million
  CYP2E1 gene expression: 217.96 transcripts per million
  CYP3A11 gene expression: 632.32 transcripts per million
  CYP3A25 gene expression: 112.18 transcripts per million
  UGT1A6A gene expression: 232.80 transcripts per million
  UGT1A9 gene expression: 184.63 transcripts per million
  UGT1A10 gene expression: 2.44 transcripts per million
  UGT2B5 gene expression: 995.27 transcripts per million
HepG2 cells [2]; HepG2, 72 hours
  downregulation of fetal gene AFP compared with untreated control: over 3 orders of magnitude
HepG2 cells [2]; HepG2, treated 72 hours
  AFP gene expression: 4.74 transcripts per million
  ALB gene expression: 2083.6 transcripts per million
  CD81 gene expression: 634.68 transcripts per million
  CYP1A2 gene expression: 0.68 transcripts per million
  CYP1B1 gene expression: 3.07 transcripts per million
  CYP2C9 gene expression: 33.45 transcripts per million
  CYP2D6 gene expression: 4.05 transcripts per million
  CYP2E1 gene expression: 14.61 transcripts per million
  CYP3A4 gene expression: 13.37 transcripts per million
  SLC10A1 gene expression: 10.57 transcripts per million
  SLCO1B1 gene expression: 120.17 transcripts per million
  SLCO1B3 gene expression: 18.83 transcripts per million
  UGT1A1 gene expression: 16.61 transcripts per million
  UGT1A6 gene expression: 835.05 transcripts per million
  UGT1A9 gene expression: 99.71 transcripts per million
HepG2 cells [2]; HepG2 cells
  expression of hepatic nuclear receptors (CAR, FXR, LXR, PPAR, PXR, RAR), change >3-fold: did not significantly change
[3]; PHHs
  expression of hepatic nuclear receptors (CAR, FXR, LXR, PPAR, PXR, RAR), change >3-fold: did not significantly change
[3]; [7]
  AFP gene expression: 5.79 transcripts per million
  ALB gene expression: 1360.25 transcripts per million
  CD81 gene expression: 417.56 transcripts per million
  CYP1A2 gene expression: 68.21 transcripts per million
  CYP1B1 gene expression: 30.96 transcripts per million
  CYP2C9 gene expression: 77.04 transcripts per million
  CYP2D6 gene expression: 1.81 transcripts per million
  CYP2E1 gene expression: 17.69 transcripts per million
  CYP3A4 gene expression: 43.64 transcripts per million
  SLC10A1 gene expression: 0.00 transcripts per million
  SLCO1B1 gene expression: 153.15 transcripts per million
  SLCO1B3 gene expression: 14.65 transcripts per million
  UGT1A1 gene expression: 47.57 transcripts per million
  UGT1A6 gene expression: 671.53 transcripts per million
  UGT1A9 gene expression: 81.41 transcripts per million
CYP2C9
  CYP2C9 activity (luminescent metabolite formation), increase over vehicle control: > 10 fold and 10 fold
HepG2 cells [4]
  HepG2 viability / cell growth: significant inhibition of cell growth; also recorded: increased cell death and growth arrest
HepG2 cells [5]
  formation of APAP-glucuronide: induced the formation
  formation of APAP-glutathione: induced the formation
  formation of APAP-sulphate: increased formation
  rate of formation of all APAP metabolites versus PHHs: comparable rate to mature adult PHHs
[6]
  cells expressing both ALB and AFP: 100%
